From patent US20090075951A1, “Methods and Reagents for the Treatment of Inflammatory Disorders” (CombinatoRx, Inc., priority 2003, published 2009) come the findings set out here.

For orientation: inhibition means the relative decrease from the control value, in per cent.

In assay [1] the test system is TNFα secretion from LPS stimulated white blood cells from human buffy coat. Description: TNFα secretion assay, LPS stimulation.
Method: (§1) Various concentrations of each test compound were added at the time of stimulation. […] After the plate was washed with 0.1% Tween 20/PBS, an HRP-luminescent substrate was added to each well and light intensity measured using a LJL Analyst plate luminometer.
Assay [2] concerns TNFα secretion from PMA/ionomycin stimulated white blood cells from human buffy coat. Description: TNFα secretion assay, PMA/ionomycin stimulation.
Method: as §1
Another assay concerns cytokine secretion. Description: Suppression of cytokine secretion in vitro by individual tricyclic compounds.
Setting [3] is: Homo sapiens, read-out: TNFα LPS percent inhibition, 0.03 μM.
Where [4] appears, read: Homo sapiens, read-out: TNFα LPS percent inhibition, 0.06 μM.
The mark [5] stands for this setting: Homo sapiens, read-out: TNFα LPS percent inhibition, […].
[6] abbreviates: read-out: TNFα PI percent inhibition, 0.03 μM.
The mark [7] stands for this setting: read-out: TNFα PI percent inhibition, 0.06 μM.
Setting [8] is: read-out: TNFα PI percent inhibition, […].
[9] abbreviates: read-out: IL-1β LPS percent inhibition.
The mark [10] stands for this setting: read-out: IL-2 PI percent inhibition.
Setting [11] is: Homo sapiens, read-out: TNFα LPS percent inhibition.
Where [12] appears, read: read-out: TNFα PI percent inhibition.

Like-named read-outs stand apart in the source and are kept apart here.

Method for cytokine secretion: Individual tricyclic compounds were tested for their ability to suppress cytokine secretion in vitro.

For the molecule `CNCCCN1c2ccccc2CCc2ccccc21` [Desipramine, desipramine], the inhibition at 0.03 µM (in assay [1] (setting [3]); in assay [2] (setting [6]); with cytokine secretion (setting [9]); with cytokine secretion (setting [10])) was 0% in each case. The inhibition at 0.06 µM (in assay [1] (setting [4]); in assay [2] (setting [7]); in the assay with cytokine secretion (setting [9]); with cytokine secretion (setting [10])) was 0% each time. The inhibition at 0.5 µM in assay [1] (Homo sapiens, read-out: TNFα LPS percent inhibition, 0.50 μM) is 0%; in assay [2] (read-out: TNFα PI percent inhibition, 0.50 μM), 0%; in the assay on cytokine secretion (setting [9]), 11%; in the assay with cytokine secretion (setting [10]) it was 0%. For the same molecule, the inhibition at 1 µM is 0% in assay [1] (Homo sapiens, read-out: TNFα LPS percent inhibition, 1.00 μM); 0% in assay [2] (read-out: TNFα PI percent inhibition, 1.00 μM); 13% in the assay with cytokine secretion (setting [9]); 0% in the assay with cytokine secretion (setting [10]). Besides, the inhibition at 2 µM was 0% in assay [1] (Homo sapiens, read-out: TNFα LPS percent inhibition, 2.00 μM); 1% in assay [2] (read-out: TNFα PI percent inhibition, 2.00 μM); 10% with cytokine secretion (setting [9]); 0% in the assay with cytokine secretion (setting [10]). Besides, the inhibition at 4 µM in assay [1] (Homo sapiens, read-out: TNFα LPS percent inhibition, 4.00 μM) was 0%; in assay [2] (read-out: TNFα PI percent inhibition, 4.00 μM), 17%; in the assay on cytokine secretion (setting [9]), 10%; in the assay on cytokine secretion (setting [10]), 0%. The inhibition at 8 µM was 0% in assay [1] (Homo sapiens, read-out: TNFα LPS percent inhibition, 8.00 μM); 26% in assay [2] (read-out: TNFα PI percent inhibition, 8.00 μM); 10% in the assay on cytokine secretion (setting [9]); 8% in the assay with cytokine secretion (setting [10]). Further, the inhibition at 16 µM was 3% in assay [1] (setting [5]), 60% in assay [2] (setting [8]), 3% in the assay with cytokine secretion (setting [9]) and 38% in the assay on cytokine secretion (setting [10]). The inhibition at 32 µM in assay [1] (setting [5]) was found to be 34%; in assay [2] (setting [8]), 79%; in the assay on cytokine secretion (setting [9]), 9%; in the assay on cytokine secretion (setting [10]), 68%. Besides, the inhibition at 64 µM in assay [1] (setting [5]) is 64%; in assay [2] (setting [8]), 89%; in the assay on cytokine secretion (setting [9]), 36%; with cytokine secretion (setting [10]), 76%. Besides, the “percent inhibition of TNFα secretion” value in assay [1] (LPS, Prednisolone 1 μM, Desipramine μM r5-r13: 0,0.5,1,2,4,8,16,32,64) was 60.8%.
As for `CN(C)CCC=C1c2ccccc2COc2ccccc21` [Doxepin, doxepin], the inhibition at 0.03 µM (in assay [1] (setting [3]); in assay [2] (setting [6]); in the assay on cytokine secretion (setting [9]); in the assay with cytokine secretion (setting [10])) was 0% throughout. Moreover, the inhibition at 0.06 µM came out at 5% in assay [1] (setting [4]), 0% in assay [2] (setting [7]), 1% in the assay with cytokine secretion (setting [9]) and 0% in the assay with cytokine secretion (setting [10]). The inhibition at 63 µM is 13% in assay [1] (setting [5]), 78% in assay [2] (setting [8]), 26% in the assay with cytokine secretion (setting [9]) and 61% with cytokine secretion (setting [10]).
As to `CN(C)CCCN1c2ccccc2CCc2ccccc21` [Imipramine, imipramine], the inhibition at 0.03 µM (in assay [1] (setting [3]); in assay [2] (setting [6]); in the assay with cytokine secretion (setting [9]); with cytokine secretion (setting [10])) was 0% in each case. Besides, the inhibition at 0.06 µM in assay [1] (setting [4]) worked out at 10%; in assay [2] (setting [7]) it was 0%; in the assay with cytokine secretion (setting [9]), 0%; in the assay on cytokine secretion (setting [10]) it was 19%. Also, the inhibition at 63 µM in assay [1] (setting [5]) amounted to 3%; in assay [2] (setting [8]), 92%; in the assay with cytokine secretion (setting [9]), 13%; in the assay with cytokine secretion (setting [10]) it was 85%.
Take `Cc1cc2c(s1)Nc1ccccc1N=C2N1CCN(C)CC1` [Olanzapine]: in assay [1] (setting [11]), the inhibition at 0.03 µM was 0%, the inhibition at 0.06 µM worked out at 0%, the inhibition at 0.5 µM was 0% and the inhibition at 1 µM is 0%. For the same molecule, in assay [1] (setting [11]), the inhibition at 2 µM turned out to be 0%, the inhibition at 4 µM was found to be 0%, the inhibition at 8 µM is 0% and the inhibition at 16 µM was 0%. Further, in assay [1] (setting [11]), the inhibition at 32 µM came to 0% and the inhibition at 64 µM was determined as 10%. For the same molecule, in assay [2] (setting [12]), the inhibition at 0.03 µM amounted to 0%, the inhibition at 0.06 µM stood at 0%, the inhibition at 0.5 µM turned out to be 0% and the inhibition at 1 µM amounted to 0%. Moreover, in assay [2] (setting [12]), the inhibition at 2 µM stood at 0%, the inhibition at 4 µM is 0%, the inhibition at 8 µM came out at 0% and the inhibition at 16 µM was 13%. Moreover, in assay [2] (setting [12]), the inhibition at 32 µM amounted to 27% and the inhibition at 64 µM turned out to be 54%. Also, in the assay with cytokine secretion (setting [9]), the inhibition at 0.03 µM is 0%, the inhibition at 0.06 µM was found to be 0%, the inhibition at 0.5 µM came out at 2% and the inhibition at 1 µM was 5%. Further, in the assay with cytokine secretion (setting [9]), the inhibition at 2 µM was found to be 3%, the inhibition at 4 µM turned out to be 3%, the inhibition at 8 µM was 7% and the inhibition at 16 µM is 21%. Moreover, in the assay on cytokine secretion (setting [9]), the inhibition at 32 µM was 41% and the inhibition at 64 µM amounted to 40%. In the assay on cytokine secretion (setting [10]), the inhibition at 0.03 µM is 0%, the inhibition at 0.06 µM is 0%, the inhibition at 0.5 µM was 0% and the inhibition at 1 µM was 0%. Also, in the assay with cytokine secretion (setting [10]), the inhibition at 2 µM amounted to 0%, the inhibition at 4 µM worked out at 0%, the inhibition at 8 µM came out at 0% and the inhibition at 16 µM was determined as 0%. In addition, in the assay on cytokine secretion (setting [10]), the inhibition at 32 µM came out at 0% and the inhibition at 64 µM is 0%.
Consider `CNCC[C@@H](Oc1ccccc1C)c1ccccc1` [Tomoxetine, tomoxetine], for which the inhibition at 0.03 µM (in assay [1] (setting [3]); in assay [2] (setting [6]); in the assay on cytokine secretion (setting [9]); with cytokine secretion (setting [10])) was 0% in each case. For the same molecule, the inhibition at 0.07 µM in assay [1] (Homo sapiens, read-out: TNFα LPS percent inhibition, 0.07 μM) turned out to be 1%; in assay [2] (read-out: TNFα PI percent inhibition, 0.07 μM), 4%; in the assay on cytokine secretion (setting [9]), 0%; in the assay on cytokine secretion (setting [10]) it was 1%. Besides, the inhibition at 69 µM was determined as 0% in assay [1] (setting [5]), 72% in assay [2] (setting [8]), 0% in the assay on cytokine secretion (setting [9]) and 79% with cytokine secretion (setting [10]).
Regarding `CC(CN(C)C)CN1c2ccccc2CCc2ccccc21` (stereo not shown) [Trimipramine, trimipramine], the inhibition at 0.01 µM in assay [1] (Homo sapiens, read-out: TNFα LPS percent inhibition, 0.01 μM) worked out at 0%; in assay [2] (read-out: TNFα PI percent inhibition, 0.01 μM) it was 0%; in the assay with cytokine secretion (setting [9]) it was 0%; in the assay on cytokine secretion (setting [10]), 0%. Besides, the inhibition at 0.03 µM is 1% in assay [1] (setting [3]), 0% in assay [2] (setting [6]), 0% in the assay with cytokine secretion (setting [9]) and 5% in the assay on cytokine secretion (setting [10]). Further, the inhibition at 0.06 µM is 3% in assay [1] (setting [4]), 0% in assay [2] (setting [7]), 0% with cytokine secretion (setting [9]) and 6% in the assay on cytokine secretion (setting [10]). In addition, the inhibition at 29 µM amounted to 11% in assay [1] (setting [5]), 77% in assay [2] (setting [8]), 2% with cytokine secretion (setting [9]) and 36% in the assay with cytokine secretion (setting [10]).
